ChEMBL document CHEMBL1201862, “PubChem BioAssay data set” (2004)
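Results reflect a 48-hour exposure of cells in 96-well plates to compound at five concentrations. GI50: concentration for 50% inhibition of growth.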 Activity calls are given as the source filed them. Cut-off read from the data, not from the text of the source: active = GI50 up to about 1.1 µM and inactive = higher.

What was measured:
Assay in all cases: NCI anticancer screen, dose series, 48 h
A498 = tested on: A498
CAKI-1 = tested on: CAKI-1
COLO 205 = tested on: COLO 205
EKVX = tested on: EKVX
LOX IMVI = tested on: LOX IMVI
Malme-3M = tested on: Malme-3M
OVCAR-4 = tested on: OVCAR-4
RPMI-8226 = tested on: RPMI-8226
RXF 393 = tested on: RXF 393
SF-268 = tested on: SF-268
SK-MEL-2 = tested on: SK-MEL-2
SK-MEL-5 = tested on: SK-MEL-5
U-251 = tested on: U-251
UO-31 = tested on: UO-31
HCT-15 = tested on: HCT-15
UACC-62 = tested on: UACC-62
SR = tested on: SR

SMILES | GI50 (A498) | GI50 (CAKI-1) | GI50 (COLO 205) | GI50 (EKVX) | GI50 (LOX IMVI) | GI50 (Malme-3M) | GI50 (OVCAR-4) | GI50 (RPMI-8226) | GI50 (RXF 393) | GI50 (SF-268) | GI50 (SK-MEL-2) | GI50 (SK-MEL-5) | GI50 (U-251) | GI50 (UO-31) | GI50 (HCT-15) | GI50 (UACC-62) | GI50 (SR)
CCOc1ccc(NC(=O)C2=C(C)NC(C)=C(C(=O)Nc3ccc(OCC)cc3)C2c2ccc([N+](=O)[O-])cc2)cc1 | 6.32 µM (inactive) | 30 µM (inactive) | 17.8 µM (inactive) | 29 µM (inactive) | 42 µM (inactive) | 24.4 µM (inactive) | 9.29 µM (inactive) | 13.8 µM (inactive) | 14 µM (inactive) | 27.4 µM (inactive) | 16.2 µM (inactive) | 15.3 µM (inactive) | 27.8 µM (inactive) | 17.7 µM (inactive) | – | – | –
COC(=O)c1nc(NC#N)nc(O)c1C | > 100 µM (inactive) | > 77.3 µM (inactive) | > 100 µM (inactive) | > 100 µM (inactive) | > 100 µM (inactive) | > 100 µM (inactive) | > 100 µM (inactive) | 98.9 µM (inactive) | > 100 µM (inactive) | > 78.9 µM (inactive) | > 100 µM (inactive) | > 100 µM (inactive) | > 85.7 µM (inactive) | > 51.8 µM (inactive) | > 87.3 µM | > 61.1 µM (inactive) | –
CC(=O)OCCC(O[Si](c1ccccc1)(c1ccccc1)C(C)(C)C)C(C)(C)O (stereo not drawn) | > 100 µM (inactive) | – | 15.8 µM (inactive) | 48.4 µM (inactive) | 24 µM (inactive) | > 100 µM (inactive) | 64.1 µM (inactive) | 23.9 µM (inactive) | 17.6 µM (inactive) | 38.5 µM (inactive) | 75 µM (inactive) | 51.6 µM (inactive) | 36.3 µM (inactive) | 22.1 µM (inactive) | 31.1 µM | 53.8 µM (inactive) | –
C=C(CN(C)C)C(=O)c1ccccc1Cl | 36.8 µM (inactive) | 17.1 µM (inactive) | 13.9 µM (inactive) | > 52.1 µM (inactive) | 17.8 µM (inactive) | 16.2 µM (inactive) | 20.4 µM (inactive) | 17.7 µM (inactive) | 15.4 µM (inactive) | 21.9 µM (inactive) | 18.1 µM (inactive) | 24.2 µM (inactive) | 52.1 µM (inactive) | 18.9 µM (inactive) | 17.3 µM | 18.3 µM (inactive) | 10.8 µM (inactive)
Cc1ccc(/C=N/NS(=O)(=O)c2ccccc2)cc1C | 59.4 µM (inactive) | 68.7 µM (inactive) | > 100 µM (inactive) | > 100 µM (inactive) | 88.1 µM (inactive) | > 100 µM (inactive) | > 100 µM (inactive) | > 100 µM (inactive) | > 100 µM (inactive) | > 100 µM (inactive) | > 100 µM (inactive) | > 100 µM (inactive) | > 100 µM (inactive) | > 100 µM (inactive) | > 100 µM | 98.9 µM (inactive) | 86.7 µM (inactive)
O=C1C2c3[nH]c4ccccc4c3C3CCCCCCC3C2C(=O)N1c1ccccc1 (stereo not drawn) | 15.5 µM (inactive) | – | 7.64 µM (inactive) | 24.9 µM (inactive) | 5 µM (inactive) | 3.33 µM (inactive) | 3.87 µM (inactive) | 13.4 µM (inactive) | 7.74 µM (inactive) | 21.6 µM (inactive) | – | 33 µM (inactive) | 4.46 µM (inactive) | – | 22.3 µM | 32.9 µM (inactive) | 14.9 µM (inactive)
CCOC(=O)C12CN(C34CC5CC(CC(C5)C3)C4)CC(C(=O)OCC)(C1=O)C(c1ccccc1)OC2c1ccccc1 (stereo not drawn) | > 100 µM (inactive) | – | > 100 µM (inactive) | > 100 µM (inactive) | 3.54 µM (inactive) | > 100 µM (inactive) | 23 µM (inactive) | 16.5 µM (inactive) | 19.4 µM (inactive) | > 100 µM (inactive) | > 100 µM (inactive) | 94.8 µM (inactive) | > 100 µM (inactive) | > 100 µM (inactive) | > 100 µM | > 100 µM (inactive) | –
O=C1C2CCC(C2)C12CC1(c3ccccc3)C(=O)c3ccccc3N1O2 (stereo not drawn) | > 100 µM (inactive) | – | > 100 µM (inactive) | > 100 µM (inactive) | – | > 100 µM (inactive) | 75.5 µM (inactive) | 58.9 µM (inactive) | > 100 µM (inactive) | > 100 µM (inactive) | – | > 100 µM (inactive) | > 100 µM (inactive) | > 100 µM (inactive) | > 100 µM | 91.8 µM (inactive) | 67.5 µM (inactive)
CCOC(=O)C(C(CC(=O)OC)NC(=O)OCc1ccccc1)C1(C)OCCO1 (stereo not drawn) | > 100 µM (inactive) | – | > 100 µM (inactive) | > 100 µM (inactive) | > 100 µM (inactive) | > 100 µM (inactive) | > 100 µM (inactive) | > 100 µM (inactive) | > 100 µM (inactive) | > 100 µM (inactive) | > 100 µM (inactive) | > 100 µM (inactive) | > 100 µM (inactive) | > 100 µM (inactive) | > 100 µM | > 100 µM (inactive) | > 100 µM (inactive)
C[C@@H](NC1CCCC[C@@H]1O)c1ccccc1 (stereo partly drawn) | – | > 100 µM (inactive) | > 100 µM (inactive) | > 100 µM (inactive) | > 100 µM (inactive) | > 100 µM (inactive) | > 100 µM (inactive) | > 100 µM (inactive) | > 100 µM (inactive) | – | > 100 µM (inactive) | > 100 µM (inactive) | > 100 µM (inactive) | > 100 µM (inactive) | > 100 µM | > 100 µM (inactive) | –
NS(=O)(=O)c1ccccc1C(=O)N/N=C(\c1nc2ccc([N+](=O)[O-])cc2[nH]c1=O)C(O)c1ccc([N+](=O)[O-])cc1 (stereo not drawn) | > 100 µM (inactive) | > 100 µM (inactive) | > 100 µM (inactive) | > 100 µM (inactive) | 84.1 µM (inactive) | > 100 µM (inactive) | > 100 µM (inactive) | 58.5 µM (inactive) | > 100 µM (inactive) | > 100 µM (inactive) | > 100 µM (inactive) | 44.4 µM (inactive) | > 100 µM (inactive) | 63.7 µM (inactive) | 24.2 µM | 52.2 µM (inactive) | > 100 µM (inactive)
CC(=O)OCCOCBr | > 100 µM (inactive) | > 100 µM (inactive) | > 100 µM (inactive) | > 100 µM (inactive) | > 100 µM (inactive) | > 100 µM (inactive) | > 100 µM (inactive) | > 100 µM (inactive) | > 100 µM (inactive) | > 100 µM (inactive) | > 100 µM (inactive) | > 100 µM (inactive) | > 100 µM (inactive) | > 100 µM (inactive) | > 100 µM | > 100 µM (inactive) | –
Nc1n/c(=N\c2ccccc2)ss1 | > 100 µM (inactive) | > 100 µM (inactive) | > 100 µM (inactive) | > 100 µM (inactive) | 51.4 µM (inactive) | > 100 µM (inactive) | > 100 µM (inactive) | > 100 µM (inactive) | > 100 µM (inactive) | > 100 µM (inactive) | – | > 100 µM (inactive) | > 100 µM (inactive) | > 100 µM (inactive) | – | > 100 µM (inactive) | > 100 µM (inactive)
COc1ccccc1NC(=O)CC(=O)n1nc(C)c(/N=N/c2ccccc2C(=O)O)c1C | 90.4 µM (inactive) | 47.1 µM (inactive) | > 100 µM (inactive) | 29.6 µM (inactive) | > 100 µM (inactive) | > 100 µM (inactive) | > 100 µM (inactive) | > 100 µM (inactive) | – | > 100 µM (inactive) | > 100 µM (inactive) | 68.1 µM (inactive) | 95.7 µM (inactive) | 48.6 µM (inactive) | > 100 µM | 59.7 µM (inactive) | –
Cc1ccc(NC(=O)OCC(COc2ccc(Cl)cc2Cl)OC(=O)Nc2ccc(C)cc2)cc1 (stereo not drawn) | > 100 µM (inactive) | < 0.01 µM (active) | > 100 µM (inactive) | > 100 µM (inactive) | – | > 100 µM (inactive) | 33.2 µM (inactive) | > 100 µM (inactive) | 79.4 µM (inactive) | > 100 µM (inactive) | > 100 µM (inactive) | – | 34.8 µM (inactive) | 66.2 µM (inactive) | > 100 µM | > 100 µM (inactive) | –
CC/C=C/c1cc2cc[nH]c2c2c1C(C)C[C@@H]2C (stereo partly drawn) | 16.3 µM (inactive) | 32.8 µM (inactive) | 18.2 µM (inactive) | 43.2 µM (inactive) | 17.1 µM (inactive) | > 100 µM (inactive) | – | 21.6 µM (inactive) | 17.7 µM (inactive) | – | – | 21.6 µM (inactive) | 23.4 µM (inactive) | 24.9 µM (inactive) | 22.5 µM | 17.8 µM (inactive) | –
CN(C)CCCN1CCc2c([nH]c3ccccc23)C1c1cccnc1 (stereo not drawn) | > 100 µM (inactive) | > 100 µM (inactive) | > 100 µM (inactive) | > 100 µM (inactive) | > 100 µM (inactive) | > 100 µM (inactive) | > 100 µM (inactive) | > 100 µM (inactive) | > 100 µM (inactive) | – | > 100 µM (inactive) | > 100 µM (inactive) | > 100 µM (inactive) | > 100 µM (inactive) | > 100 µM | > 100 µM (inactive) | > 100 µM (inactive)
O=C(CC1(O)C(=O)Nc2ccccc21)c1ccc(Cl)cc1Cl (stereo not drawn) | > 100 µM (inactive) | > 100 µM (inactive) | > 100 µM (inactive) | > 100 µM (inactive) | > 100 µM (inactive) | > 100 µM (inactive) | > 100 µM (inactive) | > 100 µM (inactive) | > 100 µM (inactive) | > 100 µM (inactive) | > 100 µM (inactive) | > 100 µM (inactive) | – | > 100 µM (inactive) | > 100 µM | > 100 µM (inactive) | –
